Reference: patent US12479809B2, “Hydrazone amide derivative and application thereof in preparation of medicaments for preventing and treating alopecia” (SHENZHEN CELL INSPIRE PHARMACEUTICAL DEVELOPMENT CO., LTD., priority 2019, dated 2025)

Test system: alopecia in mice
Experiment: Animal experiment: therapeutic effect on alopecia in bilaterally ovariectomized mice after oral administration
Assay type: in vivo
Conditions: for Cured / Ineffective / Ameliorated: number of mice of 10 per group; for Cured / Ineffective / Ameliorated / Total effective rate (%) / cure rate / back hair of mice after administration (FIGS. 3, 8 and 9): ovariectomized female mice, oral 10 mg/kg/day, 4 weeks; for Cured: cured = no difference with the normal group; for Ineffective: no difference from the model group; for Ameliorated: significant difference from the model group; for Total effective rate (%) / cure rate: 10 mice per group; for back hair of mice after administration (FIGS. 3, 8 and 9): compared with the normal group (FIG. 1); for promoting hair follicle growth: summary statement
Experimental: Experiment method: 100 8-week-old female mice were divided into 10 groups with 10 mice in each group. They were randomly divided into a normal group, a model group and administration groups. The mice in the model group and the administration groups were fasted overnight and subjected to bilateral ovariectomy after anesthesia with 0.1 ml of 10% chloral hydrate. After the bilateral ovariectomy, penicillin injection 0.1 ml/per mouse was injected once a day for seven times to prevent infection. After 4 weeks of modeling, the experiment was carried out by oral administration. The medicament was prepared with normal saline, and administered 10 mg/kg/day to each mouse in the administration groups. The normal group and model group were given only normal saline. After 4 weeks of administration, the hair on the back of the mice was observed.
Cured: Alopecia was completely cured, with no difference with the normal group.
Ameliorated: Alopecia was ameliorated, with significant difference from the model group, but small difference from the normal group.
Ineffective: Alopecia was not ameliorated, with no difference from the model group.

| SMILES | Cured | Ineffective | Ameliorated | Total effective rate (%) | cure rate | Total effective rate (%) (10 mg/kg/day) | back hair of mice after administration (FIGS. 3, 8 and 9) | promoting hair follicle growth |
| --- | --- | --- | --- | --- | --- | --- | --- | --- |
| CCOC(=O)c1sc(NC(=O)/C(=N/Nc2c(C#N)cccc2C(=O)O)C(C)=O)nc1C [Compound 12] | 8 | 1 | 1 | 90% | – | – | – | – |
| CCOC(=O)c1sc(NC(=O)/C(=N/Nc2ccc(F)cc2C(=O)O)C(C)=O)nc1C [Compound 10] | 2 | 5 | 3 | 50% | – | – | – | – |
| CC(=O)/C(=N\Nc1ccccc1C(=O)O)C(=O)Nc1ccccc1 [Compound 24] | 10 | 0 | 0 | – | 100% | 100% | completely recovered | significant advantages |
| CC(=O)/C(=N\Nc1ccccc1C(=O)O)C(=O)N1CCOCC1 [Compound 28] | 10 | 0 | 0 | – | 100% | 100% | completely recovered | significant advantages |
| CC(=O)/C(=N\Nc1ccccc1C(=O)O)C(=O)Nc1cccc(O)n1 [Compound 30] | 4 | 3 | 3 | 70% | – | – | – | – |
| CCOC(=O)c1sc(NC(=O)/C(=N/Nc2ccccc2C(=O)OC)C(C)=O)nc1C [Compound 4] | 8 | 0 | 2 | – | – | 100% | – | significant advantages |
